Consider five compounds from patent publication US7951815B2, “Substituted 1,4,8-triazaspiro [4,5]decan-2-one compounds” (Gruenenthal GmbH, priority 2004, dated 2011).

For assay [1], the system named is batrachotoxin (BTX) binding site of the sodium channel. As to the kind of experiment: Affinity to the batrachotoxin (BTX) binding site of the sodium channel. To be noted: Table II, rat cerebrocortex synaptosomes, test concentration not given.
The target in a further assay is human μ-opioid receptor (Homo sapiens, UniProt P35372). Nature of the assay: Affinity to the human μ-opioid receptor ([3H]-naloxone displacement). To be noted: for μ (Naloxone), 1 μM, % inhibition: Table II, [3H]-naloxone; for inhibition at 1 µM: read-out: μ (Naloxone), 1 μM, % inhibition.
human μ-opioid receptor, sequence (P35372 whole entry): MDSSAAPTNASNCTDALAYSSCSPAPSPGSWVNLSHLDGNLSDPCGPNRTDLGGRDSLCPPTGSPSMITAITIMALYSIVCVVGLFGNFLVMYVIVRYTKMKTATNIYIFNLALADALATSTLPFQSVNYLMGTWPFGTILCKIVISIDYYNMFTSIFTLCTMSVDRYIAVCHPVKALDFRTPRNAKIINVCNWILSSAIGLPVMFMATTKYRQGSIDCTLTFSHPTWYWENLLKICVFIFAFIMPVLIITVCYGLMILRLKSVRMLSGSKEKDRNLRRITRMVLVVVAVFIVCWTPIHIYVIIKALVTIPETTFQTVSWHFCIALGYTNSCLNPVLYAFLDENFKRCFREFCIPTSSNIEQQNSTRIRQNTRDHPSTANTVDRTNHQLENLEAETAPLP
For the next assay, the target named is T1, 5-HT transporter (Rattus norvegicus, UniProt P31652).
T1 construct: synaptosomes of rat brain areas are freshly isolated; from tissue; host or cells: rat brain synaptosomes (P2 fraction) from marrow and pons
T1 sequence (P31652 whole entry): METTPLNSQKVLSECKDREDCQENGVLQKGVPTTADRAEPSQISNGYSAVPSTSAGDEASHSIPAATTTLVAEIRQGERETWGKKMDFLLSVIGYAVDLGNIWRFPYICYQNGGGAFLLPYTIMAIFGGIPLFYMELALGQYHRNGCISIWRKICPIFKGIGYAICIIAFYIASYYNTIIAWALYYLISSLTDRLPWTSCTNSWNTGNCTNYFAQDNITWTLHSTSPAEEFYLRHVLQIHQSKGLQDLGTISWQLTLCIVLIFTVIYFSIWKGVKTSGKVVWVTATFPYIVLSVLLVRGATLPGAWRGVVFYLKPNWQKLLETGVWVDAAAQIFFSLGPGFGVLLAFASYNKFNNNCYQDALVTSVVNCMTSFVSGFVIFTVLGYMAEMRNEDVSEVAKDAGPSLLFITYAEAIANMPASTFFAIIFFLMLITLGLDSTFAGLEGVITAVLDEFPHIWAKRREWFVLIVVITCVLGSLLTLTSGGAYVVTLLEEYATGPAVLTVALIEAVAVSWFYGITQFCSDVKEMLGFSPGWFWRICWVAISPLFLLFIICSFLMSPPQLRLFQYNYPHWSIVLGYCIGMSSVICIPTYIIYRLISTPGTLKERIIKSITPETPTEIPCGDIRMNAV
Nature of the assay: Inhibition of 5-HT uptake in rat brain synaptosomes. The format is biochemical. The note with it: Table II, rat, 1 μM; for inhibition at 1 µM: read-out: Uptake 5-HT, % inhibition.

Another assay has as its system male NMRI mice. As to the kind of experiment: Analgesic test using the phenylquinone-induced writhing test on mice. The format is in vivo. The note with it: 10 mg/kg intravenous. The procedure:
The analysis of analgesic activity is carried out using the phenylquinone-induced writhing assay in mice, modified as described in the article by I. C. Hendershot and J. Forsaith ((1959) in J. Pharmacol. Exp. Ther. 125, 237-240).
For the present purpose, male NMRI mice are used having a weight of from 25 to 30 g. Groups of 10 animals per substance dose receive, 10 minutes after an intravenous dose of test substances, an intraperitoneal administration of 0.3 ml/mouse of a 0.02% strength aqueous solution of phenylquinone (phenylbenzoquinone, obtainable from Sigma, Deisenhofen; solution produced with the addition of 5% of ethanol and storage in a water bath at 45° C.). The animals are placed individually in observation cages. Using a pushbutton counter, the number of pain-induced stretching movements (so-called writhing reactions=straightening of the body accompanied by stretching of the rear extremities) was counted over a period of from 5 to 20 minutes following the administration of phenylquinone. The control is provided by animals receiving only physiological saline. All substances are tested using the standard dosage of 10 mg/kg.

SMILES strings stand for the structures. Where “and” joins values, the source holds several entries; their conditions need not be identical. Equal values may be shown once.

Method for human μ-opioid receptor: The receptor affinity to the human μ-opioid receptor is determined in a homogeneous batch in microtiter plates. For this purpose, dilution series of the substances to be tested are incubated at room temperature for 90 minutes in a total volume of 250 μL with a receptor membrane preparation (15-40 μg of protein/250 μL of incubation batch) of CHO-K1 cells which express the human μ-opioid receptor (RB-HOM receptor membrane preparation supplied by NEN, Zaventem, Belgium) in the presence of 1 nmol/L of the radioactive ligand [^3H]-naloxone (NET 719, supplied by NEN, Zaventem, Belgium), and of 1 mg of WGA-SPA beads (wheat germ agglutinin SPA beads supplied by Amersham/Pharmacia, Freiburg, Germany). As incubation buffer, 50 mmol/L of tris HCl supplemented with 0.05% (weight/volume) of sodium azide and with 0.06% (weight/volume) of bovine serum albumin is used. For determination of the nonspecific binding, 25 μmol/L of naloxone are added. On completion of the ninety-minute incubation time, the microtiter plates are centrifuged for 20 minutes at 1000 g and the radioactivity is measured in a β-counter (Microbeta-Trilux, supplied by PerkinElmer Wallac, Freiburg, Germany).
Based on the percentage displacement produced by different concentrations of the test substances, IC50 inhibitory concentrations are calculated which cause a 50 percent displacement of the radioactive ligand. As a result of recalculation using the Cheng-Prusoff relationship, the Ki values for the test substances can be obtained, as described in the publication of Y. Cheng, W. H. Prusoff, 1973, Biochem. Pharmacol., 22, pages 3099-3108.

On to `Cl.O=C1NC2(CCN(C(=O)c3ccc(Cl)cc3)CC2)N[C@H]1Cc1ccccc1` (racemic) [Example 10, 3-(S,R)-Benzyl-8-(4-chlorobenzoyl)-1,4,8-triazaspiro[4,5]decan-2-one hydrochloride], for which the BTX inhibition in assay [1] is on record as 53. The “μ (Naloxone), 1 μM, % inhibition” value at human μ-opioid receptor is recorded as 94%.
For the compound `Cl.O=C(c1ccc(Cl)cc1)N1CCC2(CC1)N[C@@H](Cc1ccccc1)C(=O)N2Cc1ccccc1` (racemic) [Example 29, 1,3-(S,R)-dibenzyl-8-(4-chlorobenzoyl)-1,4,8-triazaspiro[4,5]decan-2-one hydrochloride], the “Uptake 5-HT, rat, 1 μM, % inhibition” value at 5-HT transporter (hydrochloride) was 80% and 45%. In assay [1] (hydrochloride), the BTX inhibition is 65 and 60. At human μ-opioid receptor, the “μ (Naloxone), 1 μM, % inhibition” value amounted to 38%.
Turning to `CCC(CC)C(=O)N1CCC2(CC1)N[C@@H](Cc1ccccc1)C(=O)N2Cc1ccc(F)cc1.Cl` (racemic) [Example 31, 3-(S,R)-benzyl-8-(2-ethylbutyryl)-1-(4-fluorobenzyl)-1,4,8-triazaspiro[4,5]decan-2-one hydrochloride], the “% Inhibition of the writhing reaction (Dosage in mg/kg intravenous)” value with male NMRI mice was 36 (10) %. Further, at 5-HT transporter, the “Uptake 5-HT, rat, 1 μM, % inhibition” value worked out at 34%. This compound also yielded a BTX inhibition in assay [1] of 61.
In general, inhibition refers to the percentage by which the read-out fell short of the control. `CCC(CC)C(=O)N1CCC2(CC1)N[C@@H](Cc1ccccc1)C(=O)N2Cc1ccccc1.Cl` [Example 25, 1,3-(S)-dibenzyl-8-(2-ethylbutyryl)-1,4,8-triazaspiro[4,5]decan-2-one hydrochloride]: the “% Inhibition of the writhing reaction (Dosage in mg/kg intravenous)” value in the assay on male NMRI mice is reported as 42 (10) %. For the same compound, the inhibition at 1 µM on 5-HT transporter and at human μ-opioid receptor was 66% throughout. Further, in assay [1], the BTX inhibition is given as 47.
Regarding `Cl.O=C(COc1ccccc1)N1CCC2(CC1)N[C@@H](Cc1ccccc1)C(=O)N2Cc1ccccc1` [Example 57, 1,3-(S)-dibenzyl-8-(2-phenoxyacetyl)-1,4,8-triazaspiro[4,5]decan-2-one hydrochloride], the inhibition at 1 µM at 5-HT transporter is 72%; on human μ-opioid receptor, 60%. This compound also came in with a BTX inhibition in assay [1] of 44.
